According to article PMC9781652, “Dinuclear Iron Complexes of Iminopyridine-Based Ligands as Selective Cytotoxins for Tumor Cells and Inhibitors of Cancer Cell Migration” (Pharmaceutics, 2022):

What was measured:
[1] = test system: CCD-18Co human colon fibroblasts; assay: Cell proliferation assay (MTT), non-tumor CCD-18Co; assay type: cell-based; settings: non-tumor cells, 72 h exposure, mean ± SE
Procedure: (§1) Cells were seeded into 96-well plates at densities of 1500 cells per well for OVCAR-8, 1900 for NCI-H460, and 4000 for CCD-18Co. After 24 h of incubation, they were treated for 72 h with different concentrations of the compounds (concentration range: 0.01 to 6 μM for OVCAR-8; 0.05 to 2 μM for NCI-H460; and 0.07 to 70 μM for CCD-18Co cells). When indicated, cells were also incubated with 30 µM of the ROS scavenger Manganese (III) 5,10,15,20-tetrakis (4-benzoic acid) porphyrin (MnTBAP) (Calbiochem, San Diego, CA, USA). Cell viability was measured using the MTT assay as previously described. The IC50 value corresponds to the concentration of the assayed compound that is required to inhibit the cell proliferation by 50%, and was calculated by linear interpolation from the obtained growth curves. All data are reported as the mean ± standard error (SE) calculated from at least three independent experiments with three replicates in each.

[2] = test system: NCI-H460 human lung carcinoma cells; assay: Cell proliferation assay (MTT), NCI-H460; assay type: cell-based; settings: for IC50: 72 h exposure, MTT, mean ± SE; for SI NCI-H460 (selectivity index): ratio IC50 CCD-18Co / IC50 NCI-H460
Procedure: as §1

[3] = test system: OVCAR-8 human ovarian carcinoma cells; assay: Cell proliferation assay (MTT), OVCAR-8; assay type: cell-based; settings: for IC50: 72 h exposure, MTT, mean ± SE; for SI OVCAR-8 (selectivity index): ratio IC50 CCD-18Co / IC50 OVCAR-8
Procedure: as §1

NCI-H460 cells [4] = assay: Apoptosis analysis, Annexin V-Alexa Fluor 488/PI flow cytometry, NCI-H460; assay type: cell-based, human; settings: NCI-H460, 0.64 µM, 72 h
Procedure: (§2) Quantitative analysis of apoptotic cell death caused by compound 10 treatment was carried out by flow cytometry using the Alexa Fluor 488 annexin V/PI Vybrant Apoptosis Assay Kit (Molecular Probes, Eugene, OR, USA) as previously described. Briefly, NCI-H460 cells (7 × 10^4 per well) and OVCAR-8 cells (8 × 10^4 per well) were seeded into 6-well plates and then treated with compound 10 (0.64 μM for NCI-H460 and 1.65 μM for OVCAR-8) for 72 h in serum starved medium. After treatment, we collected attached and floating cells, washed them in cold PBS and stained them for 15 min in the dark with Annexin V-Alexa Fluor 488 and propidium iodide (PI) at room temperature. Cells were analyzed using NovoCyte Flow Cytometer (ACEA Biosciences, San Diego, CA, USA) and NovoExpress software (ACEA Biosciences, San Diego, CA, USA). At least 10,000 cells within the gated region were analyzed.

OVCAR-8 cells [5] = assay: Apoptosis analysis, Annexin V-Alexa Fluor 488/PI flow cytometry, OVCAR-8; assay type: cell-based, human; settings: OVCAR-8, 1.65 µM, 72 h
Procedure: as §2

[6] = test system: MDA-MB-231 human breast carcinoma cells; assay: Cytotoxicity on MDA-MB-231; assay type: cell-based
MDA-MB-231 cells = assay: Transwell cell migration assay; assay type: cell-based, human; settings: 0.1 µM, 24, 48 or 72 h
Procedure: MDA-MB-231 cells were seeded into the upper chamber of a 24-well transwell insert (8 µm pore size; Sarstedt, Nümbrecht, Germany) at a density of 12,000 cells/0.5 mL RPMI 1640 medium with 0.5% FBS and treated with 0.1 µM compound 10 (corresponding to an IC20). The lower chamber was filled with 0.5 mL RPMI 1640 medium with 10% FBS as a chemoattractant. The cells on the upper side of the inserts were removed with a cotton swab after 24, 48, or 72 h of incubation at 37 °C. Cells that migrated to the lower side of the inserts were fixed for 30 min with 4% paraformaldehyde and stained for 20 min at room temperature with 0.2% crystal violet solution. Ten randomly selected fields at 200× magnification were counted using an Olympus CKX41 inverted microscope (Tokyo, Japan).

NCI-H460 cells [7] = assay: Flow cytometric analysis of ROS generation (carboxy-H2DCFDA), NCI-H460; assay type: cell-based, human; settings: NCI-H460, 0.7, 1.5 or 3 µM, 48 or 72 h
Procedure: (§3) ROS generation after treatment with the compounds was analyzed using a carboxy-20, 70-dichlorodihydrofluorescein diacetate probe (carboxy-H2DCFDA) (Invitrogen, Waltham, MA). ROS species oxidize this molecule to green fluorescent dichlorofluorescein (DCF), allowing their detection inside the cells using a flow cytometer. A total of 24 h prior to treatments cells were seeded at 70,000 cells/well in 6-well plates in phenol red-free RPMI. Then, they were treated for 48 or 72 h at 37 °C with different concentrations of compound 10 (0.7, 1.5, or 3 μM for NCI-H460 cells and 2, 4.5, or 9 μM for OVCAR-8 cells) for 48 or 72 h at 37 °C. After treatments, cells were washed with PBS and incubated for 30 min at 37 °C in the dark with either 1 μM (NCI-H460 cells) or 0.5 μM (OVCAR-8 cells) carboxy-H2DCFDA diluted in PBS. Cells were then collected with phenol red-free trypsin and analyzed using a NovoCyte Flow cytometer. NovoExpress software (ACEA Biosciences, San Diego, CA, USA) was used to stablish the geometric mean fluorescence intensity of 10,000 cells.

OVCAR-8 cells [8] = assay: Flow cytometric analysis of ROS generation (carboxy-H2DCFDA), OVCAR-8; assay type: cell-based, human; settings: OVCAR-8, 2, 4.5 or 9 µM, 48 or 72 h
Procedure: as §3

supercoiled pUC18 DNA = assay: DNA interaction analysis by agarose gel electrophoresis; assay type: biochemical; settings: 24 h, 37 °C
Procedure: The interaction of DNA with the compounds was monitored in an agarose gel electrophoresis as previously described. […] Two other samples were included in the assays: a sample of pUC18 DNA alone as negative control and a sample of pUC18 DNA with 5 µg/mL cisplatin for comparison purposes. […] Gels were stained with ethidium bromide (1 µg/mL in TBE) for 15 min and DNA bands were visualized under UV light.

OVCAR-8 cells [9] = assay: Cell cycle phase analysis (PI flow cytometry), OVCAR-8; assay type: cell-based, human; settings: OVCAR-8, 0.8 µM, 72 h
Procedure: (§4) NCI-H460 and OVCAR-8 cells were treated for 72 h with compound 10 (0.3 μM for NCI-H460 and 0.8 μM for OVCAR-8). Then, they were collected and fixed at −20 °C with 70% ethanol for at least 1 h. Fixed cells washed with cold PBS were resuspended in PBS at a cell density of 1–2 × 10^6 cells/mL, treated at 37 °C for 30 min with ribonuclease A (100 μg/mL) and PI (40 μg/mL) (Molecular Probes, Eugene, OR, USA), and analyzed by flow cytometric. At least 10,000 cells within the gated region were analyzed on a NovoCyte Flow Cytometer (ACEA Biosciences, San Diego, CA, USA). Cell cycle distribution was analyzed using NovoExpress software (ACEA Biosciences, San Diego, CA, USA).

NCI-H460 cells [10] = assay: Cell cycle phase analysis (PI flow cytometry), NCI-H460; assay type: cell-based, human; settings: NCI-H460, 0.3 µM, 72 h
Procedure: as §4

## CC#N.CC#N.CC#N.CC#N.COc1cccc(C=Nc2cc(C)cc3c2OC2CC3c3cc(C)cc(N=Cc4cccc(OC)n4)c3O2)n1.COc1cccc(C=Nc2cc(C)cc3c2OC2CC3c3cc(C)cc(N=Cc4cccc(OC)n4)c3O2)n1.F[B-](F)(F)F.F[B-](F)(F)F.F[B-](F)(F)F.F[B-](F)(F)F.[Fe+2].[Fe+2] [Compound 11, [Fe25_2(CH3CN)4](BF4)4]
[1]
  IC50: 12000 ± 1440 nM
[2]
  IC50: 500 ± 100 nM
  SI NCI-H460 (selectivity index): 24.1
[3]
  IC50: 1400 ± 300 nM
  SI OVCAR-8 (selectivity index): 8.6

## CC#N.CC#N.CC#N.CC#N.Cc1cc(N=Cc2cccc(C)n2)c2c(c1)C1CC(O2)Oc2c(N=Cc3cccc(C)n3)cc(C)cc21.Cc1cc(N=Cc2cccc(C)n2)c2c(c1)C1CC(O2)Oc2c(N=Cc3cccc(C)n3)cc(C)cc21.F[B-](F)(F)F.F[B-](F)(F)F.F[B-](F)(F)F.F[B-](F)(F)F.[Fe+2].[Fe+2] [Compound 10, [Fe2(4)2(CH3CN)4](BF4)4]
NCI-H460 cells [4]
  percentage of cells that enter in apoptosis (early + late): about 82%
NCI-H460 cells [4]; serum starved medium
  Early apoptotic cells (%): 13.72 ± 4.34%
  Late apoptotic cells (%): 68.61 ± 3.04%
  Necrotic cells (%): 1.29 ± 0.27%
  Viable cells (%): 16.37 ± 2.32%
OVCAR-8 cells [5]
  percentage of cells that enter in apoptosis (early + late): ~66%
OVCAR-8 cells [5]; serum starved medium
  Early apoptotic cells (%): 36.12 ± 2.32%
  Late apoptotic cells (%): 30.82 ± 2.60%
  Necrotic cells (%): 1.27 ± 0.08%
  Viable cells (%): 31.79 ± 3.27%
[6]; MDA-MB-231 cells
  IC50: 250 nM
[6]; cisplatin value from literature
  fold lower IC50 than that described for cisplatin, MDA-MB-231: about 250 fold
[6]; concentration used in migration assay, corresponding to an IC20
  IC20: 100 nM
MDA-MB-231 cells
  Migration of MDA-MB-231 cells: significantly reduces the migration
[1]
  IC50: 21600 ± 3180 nM
NCI-H460 cells [7]
  ROS levels (fold-increase vs control): ROS levels rise with time and concentration
[2]
  IC50: 640 ± 50 nM
  SI NCI-H460 (selectivity index): 33.7
OVCAR-8 cells [8]
  ROS levels (fold-increase vs control): ROS levels rise with time and concentration
Supercoiled pUC18 DNA; highest concentrations, with H2O2
  Effect on pUC18 DNA in the presence of H2O2 at the highest concentrations: total DNA degradation
OVCAR-8 cells [9]
  % G0/G1: 41.91%
  % G2/M: 28.36%
  % S: 23.09%
  % Sub-G1: 6.61%
  Effect on cell cycle phase distribution vs untreated cells: shift in the cell population from the G0/G1 phase to the S and G2/M phases
[3]
  IC50: 1650 ± 260 nM
  SI OVCAR-8 (selectivity index): 13.1
[3]; OVCAR-8, MTT, 30 µM MnTBAP
  Cellular viability with vs without ROS scavenger MnTBAP: MnTBAP reduces the antiproliferative effect
NCI-H460 cells [10]
  % G0/G1: 57.62%
  % G2/M: 15.58%
  % S: 21.71%
  % Sub-G1: 5.10%
  Effect on cell cycle phase distribution vs untreated cells: do not show significant changes in the cell cycle phase distribution

## CC#N.CC#N.CC#N.CC#N.Cc1cc(N=Cc2ccc(Br)cn2)c2c(c1)C1CC(O2)Oc2c(N=Cc3ccc(Br)cn3)cc(C)cc21.Cc1cc(N=Cc2ccc(Br)cn2)c2c(c1)C1CC(O2)Oc2c(N=Cc3ccc(Br)cn3)cc(C)cc21.F[B-](F)(F)F.F[B-](F)(F)F.F[B-](F)(F)F.F[B-](F)(F)F.[Fe+2].[Fe+2] [Compound 9, [Fe23_2(CH3CN)4](BF4)4]
[1]
  IC50: 7200 ± 3400 nM
[2]
  IC50: 600 ± 40 nM
  SI NCI-H460 (selectivity index): 12.0
[3]
  IC50: 1780 ± 160 nM
  SI OVCAR-8 (selectivity index): 4.1

## N.N.[Cl][Pt][Cl] [Cisplatin, cisplatin, reference compound]
[1]
  IC50: 31200 ± 5760 nM
[2]
  IC50: 1010 ± 140 nM
Supercoiled pUC18 DNA; 25-100 µM compounds (cisplatin 5 µg/mL), no H2O2
  Interaction with pUC18 DNA in the absence of H2O2: migration of the CCC form decreases until it co-migrates with the OC form
[3]
  IC50: 6910 ± 1210 nM
  SI OVCAR-8 (selectivity index): 4.5
